Experimental data reported in paper PMC12246728, “Efficient Oxidative Polymerization of Hydroxytyrosol Using Horseradish Peroxidase Immobilized on a Magnetic Silica‐Coated Nanocatalyst” (Global Challenges, 2025).

System: T1, horseradish peroxidase (HRP)
T1 construct: gene PRXC1A
Assay: initial rate by absorbance at […] nm, Lineweaver-Burk
Assay type: biochemical
Details: free enzyme; 1 mM H2O2, pH 7.0, 25 °C; HXT 0.5-5.0 mM

Km: 4.45 mM
SMILES: OCCc1ccc(O)c(O)c1 [HXT, hydroxytyrosol]
